# Biological target: T1, recombinant human liver glycogen phosphorylase (Homo sapiens, UniProt P06737)
# T1 construct: made in house; host or cells: Sf9 insect cells (crude homogenate, diluted, used as the enzyme solution)
# T1 sequence (P06737 1-847): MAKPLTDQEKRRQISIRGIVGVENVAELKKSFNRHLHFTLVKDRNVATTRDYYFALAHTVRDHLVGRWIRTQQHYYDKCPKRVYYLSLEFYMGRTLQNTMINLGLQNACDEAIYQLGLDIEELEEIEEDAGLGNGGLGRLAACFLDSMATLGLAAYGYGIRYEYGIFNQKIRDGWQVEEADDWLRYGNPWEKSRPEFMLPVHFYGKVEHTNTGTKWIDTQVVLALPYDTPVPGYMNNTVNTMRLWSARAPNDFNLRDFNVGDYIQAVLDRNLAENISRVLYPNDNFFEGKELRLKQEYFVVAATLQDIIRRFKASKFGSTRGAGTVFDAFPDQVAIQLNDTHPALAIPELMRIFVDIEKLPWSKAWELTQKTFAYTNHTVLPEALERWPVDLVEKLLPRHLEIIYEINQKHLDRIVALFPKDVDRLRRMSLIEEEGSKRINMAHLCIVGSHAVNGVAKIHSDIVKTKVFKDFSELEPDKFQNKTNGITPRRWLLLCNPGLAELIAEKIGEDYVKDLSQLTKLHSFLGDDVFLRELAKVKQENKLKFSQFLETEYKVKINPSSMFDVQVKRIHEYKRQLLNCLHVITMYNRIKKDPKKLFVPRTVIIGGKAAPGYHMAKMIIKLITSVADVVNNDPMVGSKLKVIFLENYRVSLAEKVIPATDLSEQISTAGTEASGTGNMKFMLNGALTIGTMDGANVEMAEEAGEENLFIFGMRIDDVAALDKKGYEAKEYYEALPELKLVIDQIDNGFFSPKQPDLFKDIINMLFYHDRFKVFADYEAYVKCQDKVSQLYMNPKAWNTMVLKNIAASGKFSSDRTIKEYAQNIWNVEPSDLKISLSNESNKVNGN
# Test: Measuring liver glycogen phosphorylase activity (forward reaction system, NADPH absorbance at 340 nm)
# Assay type: biochemical
# Details: compound concentration 300 nmol (in parentheses); read-out: inhibition rate (%) at a certain concentration
# Protocol: [Pharmacological Test] 1. Exemplary Test (1) Method for Measuring Liver Glycogen Phosphorylase Activity
# The measurement of glycogen phosphorylase activity was carried out by a method using the forward reaction system.
# The measurement of glycogen phosphorylase activity using the forward reaction system was carried out as follows. Glucose-1-phosphate prepared from glycogen by glycogen phosphorylase was converted into glucono-δ-lactone 6-phosphate through transphosphorylation and dehydrogenation using phosphoglucomutase and glucose-6-phosphate dehydrogenase (G6PDH). NADPH generated from NADP during the dehydrogenation by G6PDH was detected.
# A homogenate of the Sf9 cells which expressed exogenously recombinant human liver glycogen phosphorylase was diluted with 100 mmol/LBES buffer solution (pH 6.8, containing 2 mmol/L EDTA) and the dilution was used as the enzyme solution of human liver glycogen phosphorylase. As the substrate, a phosphate buffer (containing 16 mmol/L KH2PO4, 24 mmol/L Na2HPO4) was used. A mixture of 8 U/mL phosphoglucomutase and 60 U/mL G6PDH was prepared in BES buffer solution. Buffer solution (containing 1.4 mmol/L NADP, 30 mmol/L MgCl2, 8 μmol/L glucose-1,6-diphosphate, 8 mg/mL glycogen, 40 mmol/LBES, 0.8 mmol/L EDTA) for reaction and a glucose solution (containing 75 mmol/L glucose, 100 mmol/LBES, 2 mmol/L EDTA) were prepared individually. The test compound was dissolved in 1% DMSO solution.
# The enzymatic reaction was begun by adding 20 μL of the recombinant human liver glycogen phosphorylase solution and 20 μL of the mixture of phosphoglucomutase and G6PDH to the mixture of 20 μL of the glucose solution, 20 μL of the substrate, 100 μL of the buffer solution for reaction and 20 μL of the test compound solution. As control, 1% DMSO solution was added instead of the test compound. The mixture without the substrate was used as blank. The absorbance at 340 nm was measured immediately after the reaction started. The absorbance at 340 nm was measured again after reacting at room temperature for 75 minutes. The enzymatic activity is a value obtained by subtracting the blank variation in absorbance over 75 minutes from the variation in absorbance over 75 minutes.
# The inhibition rate (%) of the test compound was calculated by the expression “(1-enzymatic activity of test compound/enzymatic activity of control)×100.”
# A linear equation was determined from the two concentration points with the 50% inhibition rate therebetween, and the IC50 value was calculated from the concentration at the intersection of the line with the 50% inhibition rate.
# “IC50” in the tables indicates the above-described enzyme inhibitory activity with respect to liver glycogen phosphorylase, and the activity to inhibit liver glycogen phosphorylase was represented as ++ when the IC50 value (nmol/L) was less than 100 nmol/L, as + when the IC50 value was between 100 nmol/L and 300 nmol/L. When IC50 is 300 nmol/L or more, an inhibition rate (%) at a certain concentration of the compound (I) of the present invention is shown in Tables. For example, when the inhibition rate is 20% at a concentration of 300 nmol, the rate is described as 20% (300).
row,SMILES,inhibition at 0.3 µM [%]
1,O=C(NC1CCCCC1)c1cc(NC(=O)c2cc(F)c(F)cc2Cl)[nH]n1 [Example 1-79],23.3
2,CN1CCC(N(C)C(=O)c2cc(NC(=O)c3cc(F)c(F)cc3Cl)[nH]n2)CC1 [Example 1-83],6.1

# Same assay, conditions: compound concentration 1000 nmol (in parentheses); read-out: inhibition rate (%) at a certain concentration
row,SMILES,inhibition at 1 µM [%]
1,O=C(Nc1cc(C(=O)N(CCO)c2ccccc2)n[nH]1)c1cc(F)c(F)cc1Cl [Example 1-77],43.8

# Same assay, conditions: enzyme inhibitory activity with respect to liver glycogen phosphorylase; class symbols
row,SMILES,IC50 [nM]
1,"O=C(NCc1cccnc1)c1cc(NC(=O)c2cc(F)c(F)cc2Cl)[nH]n1 [Example 1-1, 5-(2-chloro-4,5-difluoro-benzoylamino)-1H-pyrazole-3-carboxylic acid (pyridin-3-ylmethyl)-amide]",< 100
2,"Cc1nc(C)c(CNC(=O)c2cc(NC(=O)c3cc(F)c(F)cc3Cl)[nH]n2)o1 [Example 1-2-2, 5-(2-chloro-4,5-difluoro-benzoylamino)-1H-pyrazole-3-carboxylic acid (2,4-dimethyl-oxazol-5-ylmethyl)-amide p-toluenesulfonate]",< 100
3,CCN(CC)C(=O)c1cc(NC(=O)c2cc(F)c(F)cc2Cl)[nH]n1 [Example 1-4],< 100
4,CCN(Cc1ccncc1)C(=O)c1cc(NC(=O)c2cc(F)c(F)cc2Cl)[nH]n1 [Example 1-5],< 100
5,COCCN(C)C(=O)c1cc(NC(=O)c2cc(F)c(F)cc2Cl)[nH]n1 [Example 1-6],100 to 300
6,CCN(CCOC)C(=O)c1cc(NC(=O)c2cc(F)c(F)cc2Cl)[nH]n1 [Example 1-7],100 to 300
7,O=C(NCc1ccccc1F)c1cc(NC(=O)c2cc(F)c(F)cc2Cl)[nH]n1 [Example 1-8],< 100
8,O=C(NCc1cccc(F)c1)c1cc(NC(=O)c2cc(F)c(F)cc2Cl)[nH]n1 [Example 1-9],< 100
9,CN(C)c1ccccc1CNC(=O)c1cc(NC(=O)c2cc(F)c(F)cc2Cl)[nH]n1 [Example 1-10],100 to 300
10,CCCN(C(=O)c1cc(NC(=O)c2cc(F)c(F)cc2Cl)[nH]n1)C1CCC(C(=O)OCC)CC1 (stereo not shown) [Example 1-11],100 to 300
11,COc1cccc(CNC(=O)c2cc(NC(=O)c3cc(F)c(F)cc3Cl)[nH]n2)c1OC [Example 1-13],< 100
12,COc1ccc(CNC(=O)c2cc(NC(=O)c3cc(F)c(F)cc3Cl)[nH]n2)c(OC)c1 [Example 1-14],< 100
13,COc1cc(CNC(=O)c2cc(NC(=O)c3cc(F)c(F)cc3Cl)[nH]n2)cc(OC)c1 [Example 1-16],< 100
14,COc1ccc(CNC(=O)c2cc(NC(=O)c3cc(F)c(F)cc3Cl)[nH]n2)cc1OC [Example 1-17],< 100
15,O=C(NCc1cc(F)ccc1F)c1cc(NC(=O)c2cc(F)c(F)cc2Cl)[nH]n1 [Example 1-20],< 100
16,O=C(NCc1ccc(F)c(F)c1)c1cc(NC(=O)c2cc(F)c(F)cc2Cl)[nH]n1 [Example 1-22],< 100
17,O=C(NCc1cc(F)cc(F)c1)c1cc(NC(=O)c2cc(F)c(F)cc2Cl)[nH]n1 [Example 1-23],< 100
18,O=C(NCc1ncccc1C(F)(F)F)c1cc(NC(=O)c2cc(F)c(F)cc2Cl)[nH]n1 [Example 1-27],< 100
19,O=C(NCc1cccc(C(F)(F)F)c1)c1cc(NC(=O)c2cc(F)c(F)cc2Cl)[nH]n1 [Example 1-28],< 100
20,O=C(NCc1ccc(C(F)(F)F)cc1)c1cc(NC(=O)c2cc(F)c(F)cc2Cl)[nH]n1 [Example 1-29],< 100
21,CC(C)(C)c1ccc(CNC(=O)c2cc(NC(=O)c3cc(F)c(F)cc3Cl)[nH]n2)cc1 [Example 1-30],< 100
22,O=C(NCc1cccnc1OCC(F)(F)F)c1cc(NC(=O)c2cc(F)c(F)cc2Cl)[nH]n1 [Example 1-32],< 100
23,CN(C)CCNC(=O)c1ccc(CNC(=O)c2cc(NC(=O)c3cc(F)c(F)cc3Cl)[nH]n2)cc1 [Example 1-33],< 100

row,SMILES,IC50 [nM]
1,CCc1ccc(CNC(=O)c2cc(NC(=O)c3cc(F)c(F)cc3Cl)[nH]n2)cc1 [Example 1-34],< 100
2,CC(C)c1ccc(CNC(=O)c2cc(NC(=O)c3cc(F)c(F)cc3Cl)[nH]n2)cc1 [Example 1-35],< 100
3,O=C(NCc1c(F)cccc1Cl)c1cc(NC(=O)c2cc(F)c(F)cc2Cl)[nH]n1 [Example 1-36],< 100
4,COC(=O)CNC(=O)c1ccc(CNC(=O)c2cc(NC(=O)c3cc(F)c(F)cc3Cl)[nH]n2)cc1 [Example 1-43],< 100
5,COC(=O)CCNC(=O)c1ccc(CNC(=O)c2cc(NC(=O)c3cc(F)c(F)cc3Cl)[nH]n2)cc1 [Example 1-44],< 100
6,Cc1nc(CNC(=O)c2cc(NC(=O)c3cc(F)c(F)cc3Cl)[nH]n2)cs1 [Example 1-45],< 100
7,CC(=O)OCCN(CCNC(=O)c1ccc(CNC(=O)c2cc(NC(=O)c3cc(F)c(F)cc3Cl)[nH]n2)cc1)CCOC(C)=O [Example 1-47],< 100
8,O=C(NCCO)c1ccc(CNC(=O)c2cc(NC(=O)c3cc(F)c(F)cc3Cl)[nH]n2)cc1 [Example 1-48],< 100
9,CC(=O)OCCN(CCO)CCNC(=O)c1ccc(CNC(=O)c2cc(NC(=O)c3cc(F)c(F)cc3Cl)[nH]n2)cc1 [Example 1-49],< 100
10,O=C(NCc1nccs1)c1cc(NC(=O)c2cc(F)c(F)cc2Cl)[nH]n1 [Example 1-51],< 100
11,Cc1nc(CNC(=O)c2cc(NC(=O)c3cc(F)c(F)cc3Cl)[nH]n2)c(C)s1 [Example 1-53],< 100
12,O=C(NCc1csc(N2CCOCC2)n1)c1cc(NC(=O)c2cc(F)c(F)cc2Cl)[nH]n1 [Example 1-54],< 100
13,Cc1nn(C)c(C)c1CNC(=O)c1cc(NC(=O)c2cc(F)c(F)cc2Cl)[nH]n1 [Example 1-55],< 100
14,CN(C)c1nc(CNC(=O)c2cc(NC(=O)c3cc(F)c(F)cc3Cl)[nH]n2)cs1 [Example 1-57],< 100
15,Cn1cccc1CNC(=O)c1cc(NC(=O)c2cc(F)c(F)cc2Cl)[nH]n1 [Example 1-58],< 100
16,CC(C)(C)c1cnc(CNC(=O)c2cc(NC(=O)c3cc(F)c(F)cc3Cl)[nH]n2)s1 [Example 1-60],< 100
17,Cc1nn(-c2ccccc2)nc1CNC(=O)c1cc(NC(=O)c2cc(F)c(F)cc2Cl)[nH]n1 [Example 1-61],< 100
18,CC(C)(C)OC(=O)NCc1ccnc(CNC(=O)c2cc(NC(=O)c3cc(F)c(F)cc3Cl)[nH]n2)c1 [Example 1-62],< 100
19,Nc1ccccc1CNC(=O)c1cc(NC(=O)c2cc(F)c(F)cc2Cl)[nH]n1 [Example 1-65],< 100
20,O=C(Nc1cc(C(=O)N(Cc2ccccc2)Cc2ccccc2)n[nH]1)c1cc(F)c(F)cc1Cl [Example 1-74],100 to 300
21,N#CC(NC(=O)c1cc(NC(=O)c2cc(F)c(F)cc2Cl)[nH]n1)c1ccccc1 (stereo not shown) [Example 1-75],< 100
22,O=C(NCC1CCCCC1)c1cc(NC(=O)c2cc(F)c(F)cc2Cl)[nH]n1 [Example 1-76],< 100
23,CCCCN(Cc1ccccc1)C(=O)c1cc(NC(=O)c2cc(F)c(F)cc2Cl)[nH]n1 [Example 1-85],< 100
